Assay results as given in patent US8216580B2, “Sulfatases and methods of use thereof” (The Regents of the University of California, priority 2000, dated 2012).

Legend:
[1] = system: pancreatic adenocarcinoma cell lines; assay: Transwell co-culture proliferation (cell counts) with HEK 293 feeder layer; assay type: cell-based, human; settings: exogenous protein from 293 feeder layer
Method: Co-culture experiments were performed in transwell plates with 24-well inserts with 5 μm polycarbonate membrane pore size (Corning Incorporated). HEK 293 cells were plated in the wells as feeder layer and one day later 1-2×10^3 cells of the pancreatic adenocarcinoma cell lines were plated in the inserts. Cells were grown in DMEM supplemented with 10% fetal calf serum.
293 cells expressing either HSulf-2, HSulf-2-DCC, parental 293 or only medium alone were used as feeder layer; and pancreatic adenocarcinoma lines were grown on transwell filters. Subsequently, cell counts were followed over time.

[2] = system: chick chorioallantoic membrane (CAM); assay: Chick chorioallantoic membrane (CAM) angiogenesis assay; assay type: in vivo; settings: 5×10^6 stably transfected CHO cells on CAM of 9 day embryos, 72 hrs; compared to CHO-Sulf-1 or empty vector clone
Method: Sulf-2 functions as a heparan sulfate degrading enzyme (HSDE) during tumor angiogenesis by mobilizing angiogenic factors from sequestration with HSPGs We employed the chick chorioallantoic membrane (CAM) assay, a standard angiogenesis assay. CHO cells were stably transfected with HSulf-1, HSulf-2, or the empty vector and clones were isolated. Single clones of each type were implanted on the surface of the CAM of 9 day embryos. After 72 hrs, the number of new blood vessel branches was determined under a dissecting scope.
FIG. 17. Pro-angiogenic activity of HSulf-2. 5×10^6 CHO cells were implanted on the CAM of 9-day chick embryos. The CHO cells were clones that were stably transfected with either the empty vector (clone V1), HSulf-1 (clone 9) or HSulf-2 (clone 18). After 72 hrs of further incubation, the number of blood vessel branches was counted under a dissecting microscope. 6 eggs were treated with each type of CHO cell. Means and standard errors of the means are indicated.

Row | Substance | proliferation (cell counts over time) ([1]; BxPC-3, HS766T and L3.6sl cells) | proliferation (cell counts over time) ([1]; CFPAC-1 cells) | number of new blood vessel branches [2]
1 | HSulf-2 ΔCC: catalytically inactive HSulf-2, cysteines 88 and 89 mutated to alanines (CC88, 89AA) | inhibited | did not show any response | –
2 | HSulf-2: Human SULF2, an 870 amino acid sulfatase protein, SEQ ID NO:06; expressed with C-terminal Myc-His tag | – | – | dramatic response
